For ten compounds, HTS data, EC50 and RBA data results are on record in ChEMBL document CHEMBL1145862, “Identification of "latent hits" in compound screening collections” (J Med Chem, 2003).

Assay [1] concerns the target T1, Estrogen receptor (Homo sapiens) (UniProt P03372).
T1 sequence (whole entry): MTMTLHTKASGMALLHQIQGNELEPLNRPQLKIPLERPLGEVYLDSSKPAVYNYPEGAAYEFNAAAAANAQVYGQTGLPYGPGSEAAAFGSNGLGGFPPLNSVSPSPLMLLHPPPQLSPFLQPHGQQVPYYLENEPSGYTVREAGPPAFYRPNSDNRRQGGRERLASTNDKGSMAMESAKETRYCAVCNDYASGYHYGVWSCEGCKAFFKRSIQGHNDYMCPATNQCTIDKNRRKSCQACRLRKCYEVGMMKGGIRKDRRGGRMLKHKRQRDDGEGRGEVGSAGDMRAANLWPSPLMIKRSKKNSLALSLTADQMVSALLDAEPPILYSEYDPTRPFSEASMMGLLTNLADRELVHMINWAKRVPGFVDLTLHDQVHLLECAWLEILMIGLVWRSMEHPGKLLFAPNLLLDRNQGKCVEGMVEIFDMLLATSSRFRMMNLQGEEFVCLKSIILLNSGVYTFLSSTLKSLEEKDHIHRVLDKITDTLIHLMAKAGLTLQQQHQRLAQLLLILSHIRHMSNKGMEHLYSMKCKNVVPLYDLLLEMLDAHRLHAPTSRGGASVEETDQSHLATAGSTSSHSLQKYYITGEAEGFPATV
As to conditions: CHO.

The next assay deals with T2, Estrogen receptor (Homo sapiens, UniProt P03372).
T2 sequence (P03372 whole entry): T1 sequence (whole entry)
Put plainly: Transcriptional agonist activity in Chinese hamster ovary cells expressing human Estrogen Receptor alpha. Type of assay: functional, cell-based.

The target of assay [2] is T1, Estrogen receptor (Homo sapiens). Put plainly: Percent change in 17-beta-estradiol mediated transcriptional activation in CHO cells expressing human estrogen receptor alpha at 10e-6 M. Type of assay: functional, cell-based.
For assay [3] the target is unchanged. Put plainly: Relative Binding Affinity for human estrogen receptor alpha expressed in CHO cells compared to Diethylstilbestrol Dimethyl Ether. Type of assay: cell-based.
Assay [4] has the same target. Put plainly: Relative binding affinity for human estrogen receptor alpha expressed in CHO cells compared to Diethylstilbestrol Methyl Ether. Type of assay: cell-based.

On to `COc1ccc2c(c1)CC[C@@H]1[C@@H]2CC[C@]2(C)[C@@H](OC)CC[C@@H]12`, for which, in assay [1], the HTS data was determined as 0.
As usually defined, the EC50 is the concentration needed to bring the measured effect to its halfway point. A higher EC50 goes with weaker potency. In the case of `Oc1ccc(-c2cc(-c3ccc(O)cc3)cc(-c3ccc(O)cc3)c2)cc1`, the 50% effective concentration (EC50) at Estrogen receptor was determined as 0.08 µM.
As to `COc1ccc(-c2cccc(-c3ccc(OC)cc3)c2)cc1`, the EC50 on Estrogen receptor is greater than 10 µM. The HTS data in assay [2] is 7.
For the compound `CC/C(=C(/CC)c1ccc(OC)cc1)c1ccc(OC)cc1`, the RBA data in assay [3] is -1.25.
Take `CC1C(=O)c2cc(O)ccc2OC1c1ccc(O)cc1` (configuration not stated): the concentration for a half-maximal effect (EC50) on Estrogen receptor turned out to be 0.004 µM.
Consider `COc1ccc2c(c1)CC[C@@H]1[C@@H]2CC[C@]2(C)[C@@H](O)CC[C@@H]12`, for which, in assay [1], the HTS data is 76.
Regarding `COc1ccc(C2Oc3ccc(O)cc3C(=O)C2C)cc1` (configuration not stated), at Estrogen receptor, the 50% effective concentration (EC50) is greater than 10 µM. The compound also had an HTS data in assay [2] of 67.
`Oc1ccc(-c2ccc(-c3ccc(O)cc3)cc2)cc1` registered a half-maximal effective concentration (EC50) at Estrogen receptor of 1.2 µM.
As for `Oc1ccc(-c2cccc(-c3ccc(O)cc3)c2)cc1`, the EC50 at Estrogen receptor worked out at 0.8 µM.
Regarding `CC/C(=C(/CC)c1ccc(OC)cc1)c1ccc(O)cc1`, the RBA data in assay [4] came out at 1.31.
